Assay results: US20150306002A1, “3-HYDROXY-4-OXO-4H-PYRAN- OR 3-HYDROXY-4-OXO-1,4-DIHYDROPYRIDINE DERIVATIVES AS PROTEIN-ADHESIVE ACTIVE SUBSTANCES” (MERCK PATENT GMBH, priority 2012, published 2015)

Experiments:
[1] = Determination of the protein affinity in the lysine model (HPTLC); settings: 10 mg in 5 ml THF made up to 10 ml with lysine solution (200 mg/l water), 35° C., HPTLC detection at 254 nm and 366 nm; for reaction with lysine in a Maillard reaction / detectability of starting substance after 1 h: sample after 1 h
Description: In each case, 10 mg of the substances according to Example 1 and Example 2 are weighed out into a 10 ml volumetric flask and dissolved in 5 ml of tetrahydrofuran (THF). The volumetric flask is then made up to the mark with a lysine solution in distilled water. The concentration of the lysine solution is 200 mg/I of water. The solution is stirred in the volumetric flask at 35° C. for 24 h. Samples are taken after 1 h and after 24 h. 5 μl of each of these samples are pipetted onto the start zone of an HPTLC silica gel 60 […] plate (Merck Art. 1.05628) using a micropipette. For development of the HPTLC plate, the eluent consisting of THF/heptane in the ratio 75/25 containing 0.1 vol % of formic acid is used. After development, detection is carried out at 254 nm and 366 nm in a CAMAG ATS4, and the Rf values are determined.

[2] = Investigation in the Liquidskin model (L*-a*-b* values, UV/VIS spectrometer); settings: RT, 3 hrs
Description: 1 mmol of the substance according to Example 1 (2-methyl-4-oxo-4H-pyran-3-yl 2-(4-dibutylamino-2-hydroxybenzoyl)benzoate) is dissolved in 94 ml of ethylene glycol and 6 ml of water (potassium hydrogenphthalate-buffered, pH=4) with 1 mmol of DL-lysine and stirred at RT for 3 hrs. (=Liquidskin model). The L*-a*-b* values of this solution are subsequently measured using a UV/VIS spectrometer (Varian Cary-100) and compared with the starting values.

[3] = 1 mmol substance + 1 mmol DL-lysine in 94 ml ethylene glycol and 6 ml water (pH=4), compared with starting values

Structure (SMILES) | reaction with lysine in a Maillard reaction / detectability of starting substance after 1 h [1] | reaction with lysine in a Maillard reaction / detectability of starting substance after 24 h ([1]; sample after 24 h) | delta L* [2, 3] | delta a* [2, 3] | delta b* [2, 3] | colour change of lysine ([2]; Liquidskin model)
COc1ccc(/C=C/C(=O)Oc2c(C)occc2=O)cc1 [Example 2, 2-methyl-4-oxo-4H-pyran-3-yl 2-(E)-3-(4-methoxyphenyl)acrylate] | can still be detected | reaction is complete |  |  |  | 
CCCCN(CCCC)c1ccc(C(=O)c2ccccc2C(=O)Oc2c(C)occc2=O)c(O)c1 [Example 1, 2-methyl-4-oxo-4H-pyran-3-yl 2-(4-dibutylamino-2-hydroxybenzoyl)benzoate] | completely reacted with lysine |  | −4.07 | −2.75 | +7.83 | exhibits a colour change of lysine
